Test results reported in PubChem BioAssay (NCI).
Several values for one entry are separate records, joined by “and”; a condition that tells them apart may be missing. Equal entries are not always repeated.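 All cell lines were grown in 96-well plates and treated with compound for 48 hours. GI50 = concentration required for 50% inhibition of growth. TGI: concentration producing complete growth inhibition.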

How the values were obtained:
Test in all cases: NCI anticancer screen, dose series, 48 h
[1] = system: A549 NSCLC
[2] = system: DU-145 prostate
[3] = system: EKVX NSCLC
[4] = system: HCT-15 colon
[5] = system: IGROV1 ovarian
[6] = system: KM12 colon
[7] = system: LOX IMVI melanoma
[8] = system: MDA-MB-231 breast
[9] = system: OVCAR-3 ovarian
[10] = system: SK-MEL-5 melanoma

Compound | GI50 [1] | TGI [1] [µM] | GI50 [2] | TGI [2] [µM] | GI50 [3] | TGI [3] [µM] | GI50 [4] | TGI [4] [µM] | GI50 [5] | TGI [5] | GI50 [6] | TGI [6] | GI50 [7] | TGI [7] | GI50 [8] | TGI [8] [µM] | GI50 [9] | TGI [9] [µM] | GI50 [10] | TGI [10]
CNC(=O)c1cccc(C#Cc2cncnc2Nc2ccc(OCc3cccc(F)c3)c(Cl)c2)c1 | 3.85 µM | 8.9 | 3.57 µM | 8.96 | 1.22 µM | > 25 | 6.52 µM | > 25 | 4.66 µM | > 25 µM | 7.22 µM | > 19.4 µM | 5770 nM | > 17 µM | 5.95 µM | > 19.5 | 3.82 µM | 8.03 | 5.8 µM | > 20.7 µM
COc1ccc2nc3cccc([N+](=O)[O-])c3c(NC(C)CN(C)C)c2c1 (centres undefined) | 3.48 µM | 8.93 | 1.89 µM | 14.2 | 6.96 µM | 34.4 | 3.71 µM |  | 1.67 µM | 5.54 µM | 2.18 µM | 6.65 µM | 1910 nM | 5.04 µM | 2.23 µM | 10.6 | 3.15 µM | 10.4 | 1.18 µM | 2.49 µM
COc1ccc(-c2cn(-c3cc(OC)c(OC)c(OC)c3)c(=O)[nH]2)cc1OC | > 100 µM | > 100 | > 100 µM | > 100 | > 100 µM | > 100 | > 100 µM | > 100 | > 100 µM | > 100 µM | > 100 µM | > 100 µM | > 100000 nM | > 100 µM | > 100 µM | > 100 | > 100 µM | > 100 | > 100 µM | > 100 µM
Cc1cccc(Cl)c1NC(=O)c1cnc(Nc2cc(N3CCOCC3)cc(S(C)(=O)=O)c2)s1 | 2.16 µM | > 10 | 1.2 µM | 5.14 | 1.24 µM | > 10 | 3 µM | > 10 | 0.0541 µM | 0.521 µM | > 10 µM | > 10 µM | 97.7 nM | 0.938 µM | 0.141 µM | > 3.4 | 0.476 µM | > 10 | > 8.89 µM | > 10 µM
C/C=C(\C)C(=O)O[C@H]1C=CC(=O)O[C@H]1COC(=O)[C@H](C)O | 15.5 µM | 35.3 | 9.17 µM | 22.4 | 14.5 µM | 28.9 | 3.74 µM | 16.2 | 10.2 µM | 33.7 µM | 8.81 µM | 27 µM | 3590 nM | 14.8 µM | 12.1 µM | 28.3 | 3.44 µM | 14 | 4.62 µM | 16.7 µM
Cc1ccc(OCCOCCOCCOCCOCCOc2ccc(C)n(O)c2=S)c(=S)n1O | 0.0741 µM | > 100 | 0.124 µM | > 100 | 0.0392 µM | > 100 | 0.0392 µM | > 100 | 0.0372 µM | > 72.5 µM | 0.0573 µM | 39.1 µM | 54 nM | 21.8 µM | 0.062 µM | > 100 | 0.0377 µM | 18.7 | 0.0497 µM | 2.89 µM
CC1Cc2ccccc2N1C(=O)Cc1nc(N2CCOCC2)cc(=O)[nH]1 (centres undefined) | 17.3 µM and 24.5 µM | > 100 | 15.8 µM and 28.1 µM | > 100 | 7.06 µM and 17.1 µM | > 100 | 16.1 µM and 27.7 µM | > 100 | 3.09 µM and 9.02 µM | 22.8 µM and 52.6 µM | 20.2 µM and 47.6 µM | 55.1 µM and > 100 µM | 11600 nM and 16700 nM | 73.7 µM and > 100 µM | 26.4 µM and 31.3 µM | > 100 | 6.37 µM and 12.8 µM | > 100 | 13.4 µM and 34.5 µM | 34.1 µM and > 100 µM
CC/C=C\C[C@H](O)C/C=C1/C(=O)C=C[C@@H]1C/C=C\CCCCO | 3.35 µM | 11.5 | 4 µM | 15.2 | 4.22 µM | 18 | 1.58 µM | 4.57 | 3.22 µM | 12 µM | 2.84 µM | 11.5 µM | 1340 nM | 2.93 µM | 3.92 µM | 14.9 | 3.72 µM | 12.9 | 1.88 µM | 3.78 µM
CN(C)Cc1c(C(=O)NCCOc2ccc(C(=O)NO)cc2)oc2ccccc12 | 0.299 µM | 1.98 | 0.225 µM | > 33.6 | 0.346 µM | > 100 | 1.9 µM | > 35.9 | 0.438 µM | 3.6 µM | 0.312 µM | 2.34 µM | 289 nM | 1.11 µM | 0.392 µM | 18.2 | 0.272 µM | 0.969 | 0.159 µM | 0.347 µM
[Cu+2].[NH-]C(CC(=O)O)C(=O)O.[NH-]C(CC(=O)O)C(=O)O (centres undefined) | 52.1 µM | > 100 | > 100 µM | > 100 | > 100 µM | > 100 | > 100 µM | > 100 | > 100 µM | > 100 µM | > 100 µM | > 100 µM | > 100000 nM | > 100 µM | > 100 µM | > 100 | > 100 µM | > 100 | 26.5 µM | > 100 µM
O=C(c1ccccc1)c1nc2ccc(C(F)(F)F)cc2nc1N1CCN(c2ccccc2)CC1 | > 100 µM | > 100 | 57.6 µM | > 100 | 79.3 µM | > 100 | 20.5 µM | 50.1 | 43.9 µM | > 100 µM | 95.1 µM | > 100 µM | 18500 nM | 38.4 µM | 23.4 µM | 63.9 | 19.3 µM | 39.5 | 15.9 µM | 32.7 µM
COc1cc2c(c(OC)c1OC)-c1c(c3ccc([N+](=O)[O-])cc3c(=O)n1CCCN)C2=O | 1.32 µM | 3.06 | 7.27 µM | 16.6 | 7.1 µM | 33 | 8.16 µM | 16.8 | 8.7 µM | 17.1 µM | 6.64 µM | 18.1 µM | 1010 nM | 2.06 µM | 0.908 µM | 1.74 | 10.7 µM | 19.1 | 7.15 µM | 15.8 µM
